Source: patent US10729710B2, “Catecholamine prodrugs for use in the treatment of Parkinson's disease” (H. Lundbeck A/S, priority 2017, dated 2020)
Structures can show the parent of a compound that is named as a salt.

What was measured:
human D1 receptor = human D1 receptor (Homo sapiens (Human), UniProt P21728); assay: Dopamine D1 receptor agonism, HTRF cAMP assay; assay type: cell-based; settings: HEK-293 cells expressing human D1 receptor, cAMP
Protocol: Dopamine D1 receptor agonism was measured using a HTRF cAMP from CisBio using the protocol developed by HD Biosciences (China). Briefly, the assay is a homogeneous time resolved-fluorescence resonance energy transfer (HTRF) assay that measures production of cAMP by cells in a competitive immunoassay between native cAMP produced by cells and cAMP-labeled with XL-665. A cryptate-labeled anti-cAMP antibody visualizes the tracer. The assay was performed in accordance with instructions from manufacturer.
Test compounds were added to wells of microplates (384 format). HEK-293 cells expressing the human D1 receptor were plated at 1000 cells/well and incubated 30 min at room temperature. cAMP-d2 tracer was added to wells and followed by addition of Anti-cAMP antibody-cryptate preparation and incubated for 1 h at room temperature in dark. HTRF cAMP was measured by excitation of the donor with 337 nm laser (the “TRF light unit”) and subsequent (delay time 100 microseconds) measurement of cryptate and d2 emission at 615 nm and 665 nm over a time window of 200 microseconds with a 2000 microseconds time window between repeats/100 flashes). HRTF measurements were performed on an Envision microplate reader (PerkinElmer). The HTRF signal was calculated as the emission-ratio at 665 nm over 615 nm. The HTRF ratio readout for test compounds was normalized to 0% and 100% stimulation using control wells with DMSO-solvent or 30 uM dopamine. Test compound potency (EC50) was estimated by nonlinear regression using the sigmoidal dose-response (variable slope) using Xlfit 4 (IDBS, Guildford, Surrey, UK, model 205). y=(A+((B−A)/(1+((C/x)^D)))) where y is the normalized HTRF ratio measurement for a given concentration of test compound, x is the concentration of test compound, A is the estimated efficacy at infinite compound dilution, and B is the maximal efficacy. C is the EC50 value and D is the Hill slope coefficient. EC50 estimates were obtained from an independent experiment and the logarithmic average was calculated. Dopamine D2 Receptor Agonism

human D2 receptor = human D2 receptor (Homo sapiens (Human), UniProt P14416); assay: Dopamine D2 receptor agonism, calcium mobilization assay; assay type: cell-based
Protocol: Dopamine D2 receptor agonism was measured using a calcium mobilization assay protocol developed by HD Biosciences (China). Briefly, HEK293/G15 cells expressing human D2 receptor were plated at a density of 15000 cells/well in clear-bottomed, Matrigel-coated 384-well plates and grown for 24 hrs at 37° C. in the presence of 5% CO2. The cells were incubated with calcium-sensitive fluorescent dye, Fluo8, for 60-90 minutes at 37° C. in the dark. Test compounds were prepared at 3-fold concentrated solution in 1×HBSS buffer with Ca^2+ and Mg^2+. Calcium Flux signal was immediately recorded after compounds were added from compound plate to cell plate at FLIPR (Molecular Devices). The fluorescence data were normalized to yield responses for no stimulation (buffer) and full stimulation (1 μM of dopamine) of 0% and 100% stimulation, respectively. Test compound potency (EC50) was estimated by nonlinear regression using the sigmoidal dose-response (variable slope) using Xlfit 4 (IDBS, Guildford, Surrey, UK, model 205). y=(A+((B−A)/(1+((C/x)^D)))) where y is the normalized ratio measurement for a given concentration of test compound, x is the concentration of test compound, A is the estimated efficacy at infinite compound dilution, and B is the maximal efficacy. C is the EC50 value and D is the Hill slope coefficient. EC50 estimates were obtained from independent experiment and the logarithmic average was calculated.

[1] = PK experiments in rats: plasma compound (I) after oral dosing of prodrugs; assay type: in vivo, Han Wistar rats; settings: Wistar rats, FIG. 2, doses equal to 287 μg/kg of compound (I)
Protocol: Plasma was placed on water-ice following collection. Final storage at approximately −70° C.
Mobile phase B: Acetonitrile. […] Flow rate 0.5 mL/min.
The rats had unrestricted access to the diet.
Mobile phase B: Acetonitrile+0.2% formic acid. […] Flow rate 0.3 mL/min.
Han Wistar rats were supplied by Envigo, UK. […] The rats received a standard laboratory diet Teklad 2014C. The rats had unrestricted access to the diet.

human 5-HT2B receptor = human 5-HT2B receptor (Homo sapiens (Human), UniProt P41595); assay: 5-HT2B agonist activity assay (IP1 production, HTRF); assay type: cell-based
Protocol: Evaluation of the agonist activity of compounds (I), (Ia) and (Ib) at the human 5-HT2B receptor was performed by Eurofins/Cerep (France) measuring the compound effects on inositol monophosphate (IP1) production using the HTRF detection method. Briefly, the human 5-HT2B receptor was expressed in transfected CHO cells. The cells were suspended in a buffer containing 10 mM Hepes/NaOH (pH 7.4), 4.2 mM KCl, 146 mM NaCl, 1 mM CaCl2, 0.5 mM MgCl2, 5.5 mM glucose and 50 mM LiCl, then distributed in microplates at a density of 4100 cells/well and incubated for 30 min at 37° C. in the presence of buffer (basal control), test compound or reference agonist. For stimulated control measurement, separate assay wells contained 1 μM 5-HT. Following incubation, the cells were lysed and the fluorescence acceptor (fluorophen D2-labeled IP1) and fluorescence donor (anti-IP1 antibody labeled with europium cryptate) were added. After 60 min at room temperature, the fluorescence transfer was measured at lambda(Ex) 337 nm and lambda(Em) 620 and 665 nm using a microplate reader (Rubystar, BMG). The IP1 concentration was determined by dividing the signal measured at 665 nm by that measured at 620 nm (ratio). The results were expressed as a percent of the control response to 1 μM 5-HT. The standard reference agonist was 5-HT, which was tested in each experiment at several concentrations to generate a concentration-response curve from which its EC50 value is calculated as described above for dopamine functional assays.

hepatocytes from human = assay: Conversion to compound (I) in human hepatocytes; assay type: in vitro ADME; settings: 1 μg/mL, 37° C., 0.25-60 minutes, FIG. 7b
Protocol: (§1) The cell concentration at incubation was 1×10^6 viable cells/mL. The incubations were performed in glass tubes at 37° C. with a total incubation volume of 3.5 mL and with duplicate incubations for each test item. The 3.5 mL of hepatocyte suspension was equilibrated for 10 minutes in a water bath set to 37° C. where after the incubations were initiated by adding 3.5 μL of a stock solution of the test item in DMSO (Dimethyl sulfoxide) and gently inverting the tubes. The final solvent concentration in the incubations was 0.1% DMSO. Samples of 600 μL were withdrawn from the incubations at the pre-determined time points of 0.25, 5, 15, 30 and 60 minutes after ensuring homogeneity of hepatocyte suspensions. The withdrawn volume was added to 1 mL Nunc cryo tubes on wet ice containing 60 μL of ice cold ascorbic acid (100 mg/mL) and 30 μL of ice cold 100 mM saccharic acid 1.4-lactone in 0.5 M citric acid. The tubes were mixed and 35 μL of a solution of ice cold 20% formic acid was added. The tubes were mixed thoroughly and stored at −80° C. awaiting analysis. Analysis method and Instrumentation used for analysis of (I) from dosing (Id-ia), (Id-ib), (Id-iia) and (Id-iib), were the one described in Examples 4 and 5 below in the section “Instrumentation used for analysis of compound (I) from dosing of compounds (Ic), (Id-ia), (Id-ib), (Id-iia), (Id-iib), (Id-iab) and (Id-iiab).”
(§2) Analysis method and Instrumentation used for analysis of (I) from dosing (Id-iab) and (Id-iiab) consisted of mixing equal aliquots of the samples and precipitation solution (acetonitrile (MeCN) with 10% methanol (MeOH) and 1% formic acid), followed by centrifugation at 4° C. at 16000 g for 10 minutes. Supernatants were collected and analysed by LC-MS/MS. Mass spectrometer: Waters Acquity—Waters Xevo TQ-MS. Analytical column: Acquity UPLC HSS T3, 100×2.1 mm, 1.8 μm. Mobile phase A: 0.2% formic acid in water. Mobile phase B: 0.2% formic acid in acetonitrile. Gradient run from 95/5% to 60/40 in 5 min. Flow rate 0.3 mL/min. MRM monitoring of (I) in the study samples and in the analytical standards.

hepatocytes from rat = assay: Conversion to compound (I) in rat hepatocytes; assay type: in vitro ADME; settings: 1 μg/mL, 37° C., 0.25-60 minutes, FIG. 7a
Protocol: as §1, §2

[2] = Conversion to compound (I) in fresh rat blood; assay type: in vitro ADME; settings: fresh blood 37° C., 1 μg/mL, 0-60 minutes, FIG. 8a
Protocol: (§3) Conversion of (Id-ia), (Id-ib), (Id-iia) and (Id-iib) in human blood (average of 3 donors) and rat blood (average of 45 donors) to (I) was shown in fresh blood at 37° C. spiked with 1 μg/mL of (Id-ia), (Id-ib), (Id-iia) and (Id-iib) separately, (I) was measured at 0, 5, 15, 30 and 60 minutes in isolated plasma. Analysis method and Instrumentation as described in Examples 4 and 5 below in the section “Instrumentation used for analysis of compound (I) from dosing of compounds (Ic), (Id-ia), (Id-ib), (Id-iia), (Id-iib), (Id-iab) and (Id-iiab).”

[3] = Conversion to compound (I) in fresh human blood; assay type: in vitro ADME; settings: fresh blood 37° C., 1 μg/mL, 0-60 minutes, FIG. 8b
Protocol: as §3

male CD rats = assay: Rat locomotor activity (hyperactivity) assay, open field; assay type: in vivo; settings: for time until locomotor effect is gone: apomorphine: post administration, pramipexole: after appearance of effect, (Id-ia): recording ended at 415-minute time point
Protocol: In total, 206 male CD rats (Charles River, Germany) weighing 200-250 grams (165-190 grams upon arrival) were used in the study. Animals were housed at a standard temperature (22±1° C.) and in a light-controlled environment (lights on from 7 am to […]) with ad libitum access to food and water. The experiment described below was performed in accordance with the standard operating procedures of Charles River Discovery Research Services Finland Ltd. and in accordance with the national Animal Experiment Board of Finland (Eläinkoelautakunta, ELLA) authority on animal testing.
The test device is a square Plexiglass-arena (measuring 40×40×40 cm), in which the movement paths of the rats are recorded by an activity monitor (Med. Associates Inc.). Before the test period is initiated, rats are habituated to their test cage for 60 minutes. Upon completion of habituation, animals were treated with either compound or vehicle and placed back into the open field apparatus. The main test parameter measured is ambulatory distance (recorded in 5 minute segments). Overall time of measurement after receiving initial treatment was 360 minutes. Total follow up period in the study was 420 min, including 60 min of habituation.

Sequence of human 5-HT2B receptor (P41595 whole entry): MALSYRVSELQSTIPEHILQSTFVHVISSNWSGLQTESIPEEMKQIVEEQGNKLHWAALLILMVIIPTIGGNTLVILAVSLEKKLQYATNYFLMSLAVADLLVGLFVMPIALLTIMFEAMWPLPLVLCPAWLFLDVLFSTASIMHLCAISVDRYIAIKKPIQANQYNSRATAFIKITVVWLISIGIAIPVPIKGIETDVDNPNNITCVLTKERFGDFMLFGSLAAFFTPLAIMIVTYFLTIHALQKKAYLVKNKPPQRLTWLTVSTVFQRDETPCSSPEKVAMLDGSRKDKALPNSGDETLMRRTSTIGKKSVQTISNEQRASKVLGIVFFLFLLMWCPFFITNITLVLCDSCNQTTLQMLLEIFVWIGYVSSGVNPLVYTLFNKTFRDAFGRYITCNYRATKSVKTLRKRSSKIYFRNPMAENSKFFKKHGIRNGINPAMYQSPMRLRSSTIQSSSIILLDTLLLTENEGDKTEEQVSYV
Sequence of human D1 receptor (P21728 whole entry): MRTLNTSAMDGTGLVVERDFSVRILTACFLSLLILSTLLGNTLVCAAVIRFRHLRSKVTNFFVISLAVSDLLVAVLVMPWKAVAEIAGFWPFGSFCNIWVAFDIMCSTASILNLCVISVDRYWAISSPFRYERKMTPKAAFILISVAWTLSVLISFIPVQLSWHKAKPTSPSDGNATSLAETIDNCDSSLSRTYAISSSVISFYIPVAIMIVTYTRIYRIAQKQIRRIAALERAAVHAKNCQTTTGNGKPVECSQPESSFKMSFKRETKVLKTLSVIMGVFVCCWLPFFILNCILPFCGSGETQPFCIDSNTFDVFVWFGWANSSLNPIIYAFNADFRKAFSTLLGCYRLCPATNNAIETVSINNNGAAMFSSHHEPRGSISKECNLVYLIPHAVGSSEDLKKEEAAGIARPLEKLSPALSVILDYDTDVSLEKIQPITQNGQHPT
Sequence of human D2 receptor (P14416 whole entry): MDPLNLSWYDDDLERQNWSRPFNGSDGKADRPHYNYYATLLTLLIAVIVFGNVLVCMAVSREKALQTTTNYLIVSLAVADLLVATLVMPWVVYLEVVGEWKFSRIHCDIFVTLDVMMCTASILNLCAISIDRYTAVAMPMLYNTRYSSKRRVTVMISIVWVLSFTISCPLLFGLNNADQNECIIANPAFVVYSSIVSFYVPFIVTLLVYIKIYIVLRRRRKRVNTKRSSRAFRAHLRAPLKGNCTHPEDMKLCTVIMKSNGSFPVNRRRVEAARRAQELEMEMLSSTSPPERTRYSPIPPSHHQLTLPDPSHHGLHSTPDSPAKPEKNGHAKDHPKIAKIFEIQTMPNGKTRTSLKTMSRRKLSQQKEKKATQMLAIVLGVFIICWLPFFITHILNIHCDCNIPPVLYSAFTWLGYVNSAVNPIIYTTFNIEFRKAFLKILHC

CCCN1CCC[C@@H]2CC3=C(CCCC3=O)C[C@H]21 [(Ia), reference compound]
EC50 (human D1 receptor): > 1 µM | EC50 (human D2 receptor; HEK293/G15 cells expressing human D2 receptor, calcium flux): > 1 µM | plasma profile of compound (I) after oral dosing (in words) [1]: early and high peak concentrations of compound (I) | 5-HT2B agonist effect at concentration indicated (human 5-HT2B receptor; @30 uM, percent of control response to 1 μM 5-HT): 58% | EC50 (human 5-HT2B receptor; CHO cells, IP1 production): > 6 µM

CCCN1CCC[C@@H]2Cc3c(ccc(OC(=O)C(C)(C)C)c3OC(=O)C(C)(C)C)C[C@H]21 [(Ic), reference compound]
plasma profile of compound (I) after oral dosing (in words) [1]: extremely low | 5-HT2B effect at concentration indicated (no asterisk) (human 5-HT2B receptor; @10 μM): −5%@10

CCCN1CCC[C@@H]2Cc3c(ccc(O[C@@H]4O[C@H](C(=O)O)[C@@H](O)[C@H](O)[C@H]4O)c3O)C[C@H]21 [(Id-ib), (2S,3S,4S,5R,6S)-3,4,5-trihydroxy-6-(((4aR,10aR)-6-hydroxy-1-propyl-1,2,3,4,4a,5,10,10a-octahydrobenzo[g]quinolin-7-yl)oxy)tetrahydro-2H-pyran-2-carboxylic acid]
conversion to compound (I) in human hepatocytes (hepatocytes from human): time dependent conversion to compound (I) | conversion to compound (I) in rat hepatocytes (hepatocytes from rat): time dependent conversion to compound (I) | conversion to compound (I) in rat blood [2]: time dependent conversion to compound (I) | conversion to compound (I) in human blood [3]: time dependent conversion to compound (I) | plasma profile of compound (I) after oral dosing (in words) [1]: slower absorption rate avoiding rapid peak concentrations accompanied by a sustained exposure of compound (I) in plasma

CN1CCc2cccc3c2[C@H]1Cc1ccc(O)c(O)c1-3 [apomorphine, reference compound]
time until locomotor effect is gone (male CD rats): 1.5 h

CCCN1CCC[C@@H]2Cc3c(ccc(OS(=O)(=O)O)c3O)C[C@H]21 [(Id-iib), (4aR,10aR)-6-hydroxy-1-propyl-1,2,3,4,4a,5,10,10a-octahydrobenzo[g]quinolin-7-yl hydrogen sulfate]
conversion to compound (I) in human hepatocytes (hepatocytes from human): time dependent conversion to compound (I) | conversion to compound (I) in rat hepatocytes (hepatocytes from rat): time dependent conversion to compound (I) | conversion to compound (I) in rat blood [2]: time dependent conversion to compound (I) | conversion to compound (I) in human blood [3]: time dependent conversion to compound (I) | plasma profile of compound (I) after oral dosing (in words) [1]: slower absorption rate avoiding rapid peak concentrations accompanied by a sustained exposure of compound (I) in plasma

CCCN1CCC[C@@H]2Cc3c(ccc4c3OCO4)C[C@H]21 [(Ib), reference compound]
EC50 (human D1 receptor): > 1 µM | Emax (human D2 receptor; normalized to 1 μM dopamine = 100%): 100% | plasma profile of compound (I) after oral dosing (in words) [1]: early and high peak concentrations of compound (I) | 5-HT2B agonism (in words) (human 5-HT2B receptor; example 3): agonist of the 5-HT2B receptor | Emax (human 5-HT2B receptor; read-out: 5-HT2B Emax): 79%

CCCN[C@H]1CCc2nc(N)sc2C1 [Pramipexole, pramipexole, reference compound]
total distance travelled vs vehicle (male CD rats; FIG. 4, (Id-ia) p.o., apomorphine 3 mg/kg s.c., pramipexole 0.3 mg/kg s.c.): significantly increased activity | time until locomotor effect is gone (male CD rats): 2.5 h
